Counter-ions that a name gives are not always drawn.
Experiment: Inhibition of equine BChE at 100 uM by Ellman's method

**Q.** For `CNC(=O)Oc1ccc2c(c1)[C@]1(C)CCN(C)[C@@H]1N2C` [(3aS,8aR)-1,3a,8-trimethyl-1,2,3,3a,8,8a-hexahydropyrrolo[2,3-b]indol-5-yl methylcarbamate hydrochloride], which IC50 is on record?
**A.** 3.5 µM

— BindingDB's records for doi:10.1021/np070259w (Institute of Plant Biochemistry, 2007)
